In patent publication US9200046B2, “Reporter system for high throughput screening of compounds and uses thereof” (priority 2011, dated 2015):
Counter-ions that a name gives are not always drawn. Like-named read-outs stand apart in the source and are kept apart here.

Biological target: Nrf2-Keap1 complex (Homo sapiens, UniProt Q14145)
Test: cell-based
Format: cell-based
Conditions: for activation at 16 µM / activation at 32 µM: 3 h; for activation at 16 µM: read-out: Activation 100 nL; for activation at 32 µM: read-out: Activation 200 nL
[1] = Table 2, 100 nL compound, screen run at 16 and 32 μM, 3 hr
[2] = Table 2, 200 nL compound, screen run at 16 and 32 μM, 3 hr
[3] = Table 1A, 100 nL compound, screen run at 16 and 32 μM, 3 hr
[4] = Table 1A, 200 nL compound, screen run at 16 and 32 μM, 3 hr

Chain of Nrf2-Keap1 complex (Q14145 whole entry, one chain of several): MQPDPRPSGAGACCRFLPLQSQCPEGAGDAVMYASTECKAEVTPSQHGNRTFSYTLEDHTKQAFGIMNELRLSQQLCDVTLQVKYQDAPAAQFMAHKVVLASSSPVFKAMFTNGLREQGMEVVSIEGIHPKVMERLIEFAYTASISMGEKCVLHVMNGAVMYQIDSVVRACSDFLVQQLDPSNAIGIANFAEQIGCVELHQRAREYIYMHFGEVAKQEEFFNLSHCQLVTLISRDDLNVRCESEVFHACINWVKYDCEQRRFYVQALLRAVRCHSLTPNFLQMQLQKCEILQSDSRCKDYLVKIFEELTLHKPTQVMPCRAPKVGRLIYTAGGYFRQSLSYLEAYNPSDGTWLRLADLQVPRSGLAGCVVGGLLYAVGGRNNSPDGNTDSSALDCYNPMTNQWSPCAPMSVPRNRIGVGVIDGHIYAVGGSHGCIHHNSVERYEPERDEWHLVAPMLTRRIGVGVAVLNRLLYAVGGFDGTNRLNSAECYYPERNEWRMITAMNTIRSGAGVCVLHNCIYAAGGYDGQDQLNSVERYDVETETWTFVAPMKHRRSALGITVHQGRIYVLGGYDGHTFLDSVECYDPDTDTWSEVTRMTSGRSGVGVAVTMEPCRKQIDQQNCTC

CCC(=O)O[C@H]1[C@H](O[C@@H]2[C@@H](C)[C@H](O[C@H]3C[C@@](C)(OC)[C@@H](O)[C@H](C)O3)[C@@H](C)C(=O)O[C@H](CC)[C@@](C)(O)[C@H](O)[C@@H](C)C(=O)[C@H](C)C[C@@]2(C)O)O[C@H](C)C[C@@H]1N(C)C [ERYTHROMYCINESTOLATE, reference compound]
activation at 16 µM: 31%
activation at 32 µM: 71%

CC(=O)OC1CC[C@@]2(C)C(CC[C@H]3[C@@H]4CC=C(C(C)=O)[C@@]4(C)C(=O)C[C@@H]32)C1 (some centres unmarked) [3-ACETOXYPREGN-16-EN-12,20-DIONE]
activation at 16 µM: 214%
activation at 32 µM: 30%
100 nL (luminescence) [1]: 2236
200 nL (luminescence) [2]: 1040

CC(=O)O[C@@H]1CC2C(C)(C)[C@H](O)CC[C@]2(C)C2CC[C@@]3(C)[C@H](c4ccoc4)OC(=O)C4OC43[C@@]21C (stereo partly drawn) [alpha-DIHYDROGEDUNOL]
Activation 100 nL: 41%
Activation 200 nL: 29%
Neh2-luc reporter activation: 40%
100 nL (luminescence) [1]: 720
200 nL (luminescence) [2]: 1008

Nc1nc(N)c2nc(-c3ccccc3)c(N)nc2n1 [reference compound]
activation at 16 µM: 405%
activation at 32 µM: 23%
100 nL (luminescence) [3]: 3914
200 nL (luminescence) [4]: 872

CCCSc1ccc2nc(NC(=O)OC)[nH]c2c1 [ALBENDAZOLE, reference compound]
100 nL (luminescence): 4200
200 nL (luminescence): 5292
activation at 16 µM: 191%
activation at 32 µM: 272%

O=C1c2ccccc2C(=O)c2c(O)c(O)cc(O)c21 [PURPURIN]
activation at 16 µM: 54%
activation at 32 µM: 41%
100 nL (luminescence) [1]: 1176
200 nL (luminescence) [2]: 952

Cn1cnc([N+](=O)[O-])c1Sc1[nH]cnc2ncnc1-2 [AZATHIOPRINE, reference compound]
100 nL (luminescence): 948
200 nL (luminescence): 1804
hit strength in the screen (words): modest hits
activation at 16 µM: 49%
activation at 32 µM: 70%

O=S(=O)(O)CCS [MESNA, reference compound]
100 nL (luminescence): 952
200 nL (luminescence): 612
activation at 16 µM: 28%
activation at 32 µM: 18%

C=C(C)[C@@H]1CC[C@]2(C(=O)O)CC[C@]3(C)[C@H](CC[C@@H]4[C@@]5(C)CC[C@H](O)C(C)(C)[C@@H]5CC[C@]43C)[C@@H]12 [BETULINICACID]
activation at 16 µM: 54%
activation at 32 µM: 85%

O=C(/C=C/c1ccccc1)c1ccc(O[C@@H]2O[C@H](CO)[C@@H](O)[C@H](O)[C@H]2O)cc1O [2′,4′-DIHYDROXYCHALCONE4′-GLUCOSIDE]
Activation 100 nL: 33%
Activation 200 nL: 121%
100 nL (luminescence) [1]: 1056
200 nL (luminescence) [2]: 2592

COc1cc(O)c(C(=O)/C=C/c2ccc(O)c(OC)c2)c(OC)c1 [2′,4-DIHYDROXY-3,4′,6′-TRIMETHOXYCHALCONE]
activation at 16 µM: 655%
activation at 32 µM: 305%
100 nL (luminescence) [1]: 6104
200 nL (luminescence) [2]: 7512

COc1cc(O)c(C(=O)c2ccccc2)cc1O [CEAROIN]
activation at 16 µM: 53%
activation at 32 µM: 111%
100 nL (luminescence) [1]: 1076
200 nL (luminescence) [2]: 2988

COc1cc2c(c(OC)c1OC)-c1ccc(=O)c(O)cc1[C@@H](NC(C)=O)CC2 [COLCHICEINE]
activation at 16 µM: 35%
activation at 32 µM: 11%
100 nL (luminescence) [1]: 672
200 nL (luminescence) [2]: 584

COC1=CC(=O)C[C@@H](C)[C@]12Oc1c(Cl)c(OC)cc(OC)c1C2=O [GRISEOFULVIN, reference compound]
activation at 16 µM: 41%
activation at 32 µM: 182%
100 nL (luminescence) [1]: 1208
200 nL (luminescence) [2]: 3684

CSc1nc(NC(C)C)nc(NC(C)C)n1 [PROMETRYN]
activation at 16 µM: 67%
activation at 32 µM: 4%
100 nL (luminescence) [1]: 1264
200 nL (luminescence) [2]: 542

CC1(C)C(=O)C=C[C@]2(C)[C@H]3CC[C@@]4(C)[C@H](c5ccoc5)OC(=O)[C@H]5O[C@]54[C@]3(C)C(=O)C[C@@H]12 [DEACETOXY-7-OXOGEDUNIN]
Activation 100 nL: 45%
Activation 200 nL: 8%
100 nL (luminescence) [1]: 1048
200 nL (luminescence) [2]: 448

COc1cc2nc(N3CCN(C(=O)c4ccco4)CC3)nc(N)c2cc1OC [PRAZOSINHYDROCHLORIDE, reference compound]
activation at 16 µM: 87%
activation at 32 µM: 40%

CC1=C(CC(=O)O)c2cc(F)ccc2/C1=C\c1ccc([S+](C)[O-])cc1 (centres unmarked) [reference compound]
Neh2-luc reporter activation: 200%
activation at 16 µM: 114%
activation at 32 µM: 188%
100 nL (luminescence) [3]: 2692
200 nL (luminescence) [4]: 2710

CC(=O)[O-].CC(=O)[O-].[Cd+2] [CADMIUMACETATE]
Activation 100 nL: 47%
Activation 200 nL: −6%
100 nL (luminescence) [1]: 992
200 nL (luminescence) [2]: 312

COC(=O)c1c(C)cc(O)cc1O [METHYLORSELLINATE]
activation at 16 µM: 31%
activation at 32 µM: 1%
100 nL (luminescence) [1]: 640
200 nL (luminescence) [2]: 368

Nc1ncnc2c1ncn2[C@H]1C[C@H](O)[C@@H](CO)O1 [DEOXYADENOSINE]
100 nL (luminescence): 788
200 nL (luminescence): 390
activation at 16 µM: 32%
activation at 32 µM: -3%

COc1ccc(/C=C/C(=O)c2cc(O)ccc2O)cc1 [2′,5′-DIHYDROXY-4-METHOXYCHALCONE]
activation at 16 µM: 322%
activation at 32 µM: 20%
100 nL (luminescence) [1]: 3188
200 nL (luminescence) [2]: 800

O=C1C[C@@H](c2ccc(O)c(O)c2)Oc2cc(O)cc(O)c21 [ERIODYCTOL]
Activation 100 nL: 76%
Activation 200 nL: 18%
100 nL (luminescence) [1]: 1028
200 nL (luminescence) [2]: 768

CN1CCN(CC/C=C2/c3ccccc3Sc3ccc(S(=O)(=O)N(C)C)cc32)CC1 [THIOTHIXENE, reference compound]
activation at 16 µM: 55%
activation at 32 µM: -26%
100 nL (luminescence) [1]: 1500
200 nL (luminescence) [2]: 68

CO/N=C(\C(=O)N[C@@H]1C(=O)N2C(C(=O)O)=C(COC(C)=O)CS[C@H]12)c1csc(N)n1 [CEFOTAXIMESODIUM, reference compound]
activation at 16 µM: 50%
activation at 32 µM: 7%
100 nL (luminescence) [1]: 968
200 nL (luminescence) [2]: 488

CC(=O)Oc1cc2c(cc1OC(C)=O)[C@@H]1c3ccc(OC(C)=O)c(OC(C)=O)c3OC[C@]1(OC(C)=O)C2 [HAEMATOXYLINPENTAACETATE]
Activation 100 nL: 50%
Activation 200 nL: 37%
100 nL (luminescence) [1]: 1040
200 nL (luminescence) [2]: 1304

CC(C)[C@@H](C)/C=C/[C@@H](C)[C@H]1CC[C@H]2C3=CC=C4C[C@@H](O)CC[C@]4(C)[C@H]3CC[C@]12C [ERGOSTEROL]
activation at 16 µM: 86%
activation at 32 µM: 86%
100 nL (luminescence) [1]: 1676
200 nL (luminescence) [2]: 1640

COc1cc(/C=C/C(=O)CC(=O)/C=C/c2ccc(O)c(OC)c2)ccc1O [CURCUMIN]
activation at 16 µM: 252%
activation at 32 µM: -4%
100 nL (luminescence) [1]: 4208
200 nL (luminescence) [2]: 264

C=C1C[C@@H]2[C@H](CC[C@]3(C)C(=O)CC[C@@H]23)[C@@]2(C)C=CC(=O)C=C12 [EXEMESTANE, reference compound]
activation at 16 µM: 261%
activation at 32 µM: 220%
100 nL (luminescence) [1]: 4836
200 nL (luminescence) [2]: 4668

COc1ccc2ccc(=O)oc2c1CC=C(C)C [OSTHOL]
Activation 100 nL: 58%
Activation 200 nL: 52%
100 nL (luminescence) [1]: 1136
200 nL (luminescence) [2]: 1634

COc1cc(OC)c2c(=O)c(O)c(-c3ccc(OC)c(OC)c3)oc2c1
Activation 100 nL: 29%
Activation 200 nL: 8%
100 nL (luminescence) [1]: 760
200 nL (luminescence) [2]: 644

C=C1CC[C@H]2O[C@]2(C)CC[C@@H]2[C@@H]1CC2(C)C [CARYLOPHYLLENEOXIDE]
Activation 100 nL: 38%
Activation 200 nL: 2%
100 nL (luminescence) [1]: 874
200 nL (luminescence) [2]: 488

Cc1coc2c1C(=O)C(=O)c1c-2ccc2c1CCCC2(C)C [TANSHINONEIIA]
activation at 16 µM: 354%
activation at 32 µM: 87%
100 nL (luminescence) [1]: 5092
200 nL (luminescence) [2]: 2452

O=c1oc2cc(O)ccc2s1 [TIOXOLONE, reference compound]
activation at 16 µM: 156%
activation at 32 µM: 31%
100 nL (luminescence) [1]: 3542
200 nL (luminescence) [2]: 768

O=C(/C=C/C(=O)Oc1ccccc1C(=O)O)Oc1ccccc1C(=O)O [BISSALICYLFUMARATE]
activation at 16 µM: 338%
activation at 32 µM: 156%

CC1(C)[N+]([O-])=[N+]([O-])C1(C)Br (centres unmarked)
Activation 100 nL: 55%
Activation 200 nL: 83%
100 nL (luminescence) [1]: 1308
200 nL (luminescence) [2]: 1976

COc1ccc(C(=O)/C=C/c2ccccc2)cc1 [4′-METHOXYCHALCONE]
activation at 16 µM: 134%
activation at 32 µM: -15%
100 nL (luminescence) [1]: 2400
200 nL (luminescence) [2]: 102

CC(=O)Oc1ccc(Cl)c2cccnc12 [CHLOROACETOXYQUINOLINE]
Neh2-luc reporter activation: 60%
activation at 16 µM: 60%
activation at 32 µM: 37%

Cc1cccc2c3c(ccc12)C1=C(C(=O)C3=O)[C@@H](C)CO1 [DIHYDROTANSHINONEI]
activation at 16 µM: 158%
activation at 32 µM: 5%
100 nL (luminescence) [1]: 2480
200 nL (luminescence) [2]: 572

CC(C)=CCc1c2c(c(O)c3c(=O)c(O)c(-c4ccccc4)oc13)C=CC(C)(C)O2 [SERICETIN]
activation at 16 µM: 263%
activation at 32 µM: 20%
100 nL (luminescence) [1]: 2672
200 nL (luminescence) [2]: 800

Oc1cccc2cccnc12 [8-hydroxyquinoline]
Neh2-luc reporter activation: 60%
